Earlier results in patent publication US20230312573A1, “NOVEL SALTS, CRYSTALS, AND CO-CRYSTALS” (INTRA-CELLULAR THERAPIES, INC., priority 2021, published 2023).

Experiments:
[1] = target: H1 histaminergic receptor (Homo sapiens, UniProt P35367)
5-HT2C receptor = target: T1, 5-HT2C receptor (Homo sapiens, UniProt P28335)
T1 sequence (P28335 33-458): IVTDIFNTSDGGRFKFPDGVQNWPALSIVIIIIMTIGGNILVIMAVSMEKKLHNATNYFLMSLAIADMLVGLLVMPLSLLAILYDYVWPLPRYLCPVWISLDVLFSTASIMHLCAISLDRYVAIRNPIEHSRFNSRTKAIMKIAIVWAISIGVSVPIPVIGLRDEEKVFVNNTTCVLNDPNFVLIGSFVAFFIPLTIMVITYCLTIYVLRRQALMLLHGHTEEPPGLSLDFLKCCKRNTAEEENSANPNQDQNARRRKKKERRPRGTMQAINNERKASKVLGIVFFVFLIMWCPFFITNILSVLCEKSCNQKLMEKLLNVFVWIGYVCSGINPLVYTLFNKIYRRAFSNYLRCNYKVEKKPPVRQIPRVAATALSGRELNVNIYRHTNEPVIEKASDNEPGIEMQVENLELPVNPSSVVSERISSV

Chain of H1 histaminergic receptor (P35367 whole entry): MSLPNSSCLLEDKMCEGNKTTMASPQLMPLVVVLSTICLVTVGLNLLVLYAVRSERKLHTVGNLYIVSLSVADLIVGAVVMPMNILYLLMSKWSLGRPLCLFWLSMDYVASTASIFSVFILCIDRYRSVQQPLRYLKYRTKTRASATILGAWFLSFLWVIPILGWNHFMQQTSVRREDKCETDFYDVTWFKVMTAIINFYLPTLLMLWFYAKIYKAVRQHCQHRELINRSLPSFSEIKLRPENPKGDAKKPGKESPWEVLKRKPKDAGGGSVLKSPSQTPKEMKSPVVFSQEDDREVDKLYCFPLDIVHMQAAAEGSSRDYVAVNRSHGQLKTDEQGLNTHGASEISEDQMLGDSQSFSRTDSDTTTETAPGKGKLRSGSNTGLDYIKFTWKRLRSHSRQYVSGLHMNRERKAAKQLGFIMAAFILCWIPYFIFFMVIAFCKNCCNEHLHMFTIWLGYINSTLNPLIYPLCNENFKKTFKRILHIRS

- binding to H1 histaminergic receptors [1]: negligible binding
- binding to muscarinic receptors (muscarinic receptor): negligible binding
- binding to 5-HT2C receptors (5-HT2C receptor): negligible binding
Structure (SMILES): CN1CCN2c3c(cccc31)[C@@H]1CN(CCCC(=O)c3ccc(F)cc3)CC[C@@H]12 [Lumateperone, 1-(4-fluoro-phenyl)-4-((6bR,10aS)-3-methyl-2,3,6b,9,10,10a-hexahydro-1H,7H-pyrido[3′,4′:4,5]pyrrolo[1,2,3-de]quinoxalin-8-yl)-butan-1-one]
